From US20240083903A1, “ARYL ETHER COMPOUNDS AS TEAD MODULATORS” (Merck Sharp& Dohme LLC, priority 2021, published 2024)

System: TEAD Reporter-MCF7 cell line
Assay: YAP/TEAD cellular activity assay: inhibition of TEAD-Luc activity in TEAD Reporter-MCF7 cell line
Format: cell-based, human
Conditions: TEAD Reporter-MCF7 cells, 24 hours incubation with compound, luciferase readout
Procedure: YAP/TEAD Cellular Activity Assay
Quantitation of Compound Potency on the Inhibition of TEAD-Luc Activity in TEAD Reporter-MCF7 Cell Line.
The TEAD Reporter-MCF7 cell line containing the firefly luciferase gene under the control of TEAD responsive elements stably integrated into the human breast cancer cell line was purchased from BPS Bioscience (Cat #60618). The cells were cultured with complete culture medium ([…], 1 mM sodium pyruvate, 10% fetal bovine serum, 10 ng/mL insulin and 400 ug/mL G418 sulfate) prior to the assay. For the assay, the cells were harvested, resuspended in the complete culture medium without G418, and seeded into white solid bottom 384-well cell culture microplates in 25 uL with 10,000 cells per well. The plates were incubated at 37° C. in a CO2 incubator for 20-24 hours and the compounds were then transferred from Echo LDV plates directly into the 384-well white tissue culture plates with an Echo. The plates were incubated at 37° C. in a CO2 incubator for 24 hours and equal volume of ONE-Glo™ EX Luciferase reagent (Promega, Cat #E8150) was added. After mixing on a shaker at room temperature for 10 minutes, the luciferase activity was measured with an Envision. The percentage inhibition and EC50 values of compounds were calculated with Spotfire.
Required Materials • 1. TEAD reporter-MCF-7 Cells (BPS Bioscience, #60618) • 2. Complete Cell Culture Medium (without selection antibiotics) • EMEM 89% (ATCC, #30-2003) • FBS 10% (Hyclone, #SH30088.03) • 1% Non essential amino acids (Gibco, • 1 mM sodium pyruvate (Gibco, • Pen/Strep, 1% (Gibco, #15140-122) • 10 ng/mL insulin (Sigma, #10516) • 3. Complete Cell Culture Medium (with selection antibiotics) • EMEM 89% (ATCC, #30-2003) • F1% Non essential amino acids (Gibco, • 1 mM sodium pyruvate (Gibco, • BS 10% (Hyclone, #SH30088.03) • 10 ng/mL insulin (Sigma, #10516) • 400 ug/mL G418 sulfate (Agilent, #200049-21) • 4. Miscellaneous tissue culture equipment and reagents. • 5. White solid 384-well tissue culture plate (Greiner, Cat #781080) • 6. One Glo EX luciferase assay system (Promega, #E8150)
The following table tabulates the biological data disclosed for the current invention. The biological data was collected using the methodology described above. For each compound, TEAD-Luc EC50 values are listed in nanomolar (nM) concentration units.

**Q.** Which EC50 (Homo sapiens, MCF7, 24 h) does the source give for `O=S(=O)(NC1CC1)c1ccc(Oc2ccc(C(F)(F)F)cc2)c(-c2cn3c(n2)CCC3)c1` [7-3, N-cyclopropyl-3-(6,7-dihydro-5H-pyrrolo[1,2-a]imidazol-2-yl)-4-(4-(trifluoromethyl)phenoxy)benzenesulfonamide] here?
**A.** The EC50 was 17.8 nM.

**Q.** For `CNS(=O)(=O)c1ccc(Oc2ccc(C(F)F)cc2)c(-c2cnn3c2OCC3)c1` [2-33, 4-[4-(difluoromethyl)phenoxy]-3-(2,3-dihydropyrazolo[5,1-b] [1,3]oxazol-7-yl)-N-methylbenzene-1-sulfonamide], which EC50 (Homo sapiens, MCF7, 24 h) is on record?
**A.** The EC50 was 356 nM.

**Q.** For `CNS(=O)(=O)c1ccc(Oc2cccc(F)c2)c(-c2cn3c(n2)CCC3)c1` [4-6, 3-(6,7-dihydro-5H-pyrrolo [1,2-a]imidazol-2-yl)-4-(3-fluorophenoxy)-N-methylbenzene-1-sulfonamide], which EC50 (Homo sapiens, MCF7, 24 h) is on record?
**A.** Its EC50 is 146 nM.

**Q.** `CNS(=O)(=O)c1ccc(Oc2ccc(OC)cc2)c(-c2cn3c(n2)CCC3)c1` [4-14, 3-(6,7-dihydro-5H-pyrrolo[1,2-a]imidazol-2-yl)-4-(4-methoxyphenoxy)-N-methylbenzene-1-sulfonamide] was tested. Which EC50 (Homo sapiens, MCF7, 24 h) did it give?
**A.** Its EC50 is 45.7 nM.

**Q.** With `CNS(=O)(=O)c1ccc(Oc2ccc(C(F)(F)F)cc2)c(-c2cn3c(n2)CC(C)C3)c1` (single isomer, unassigned) [1-41, (R)- or (S)-N-methyl-3-(6-methyl-6,7-dihydro-5H-pyrrolo [1,2-a]imidazol-2-yl)-4-[4-(trifluoromethyl)phenoxy]benzene-1-sulfonamide] as the compound, how does the EC50 read?
**A.** The EC50 was 26.1 nM.

**Q.** For `CNS(=O)(=O)c1ccc(Oc2ccc(C(F)(F)F)cc2)c(-c2cnc3n2CCC3)c1` [1-6, 3-(6,7-dihydro-5H-pyrrolo[1,2-a]imidazol-3-yl)-N-methyl-4-[4-(trifluoromethyl)phenoxy]benzene-1-sulfonamide], which EC50 (Homo sapiens, MCF7, 24 h) is on record?
**A.** Its EC50 is 3490 nM.

**Q.** How did the EC50 (Homo sapiens, MCF7, 24 h) turn out when `CNS(=O)(=O)c1ccc(Oc2ccc(C(F)(F)F)cc2)c(-c2cnc3ccc(N)cn23)c1` [1-24, 3-(6-aminoimidazo[1,2-a]pyridin-3-yl)-N-methyl-4-[4-(trifluoromethyl)phenoxy]benzene-1-sulfonamide] was run?
**A.** The EC50 was 5390 nM.

**Q.** Which EC50 does the source give for `CNS(=O)(=O)c1ccc(Oc2ccc(F)cc2F)c(-c2cn3c(n2)CCC3)c1` [4-22, 4-(2,4-difluorophenoxy)-3-(6,7-dihydro-5H-pyrrolo[1,2-a]imidazol-2-yl)-N-methylbenzene-1-sulfonamide] here?
**A.** Its EC50 is 25.3 nM.

**Q.** How did the EC50 (Homo sapiens) turn out when `CC(C)NS(=O)(=O)c1ccc(Oc2ccc(C(F)(F)F)cc2)c(-c2cn3c(n2)CCC3)c1` [7-1, 3-(6,7-dihydro-5H-pyrrolo[1,2-a]imidazol-2-yl)-N-(propan-2-yl)-4-[4-(trifluoromethyl)phenoxy]benzene-1-sulfonamide] was run?
**A.** Its EC50 is 138 nM.

**Q.** For `CNS(=O)(=O)c1ccc(Oc2ccc(C(F)(F)F)cc2)c(-c2ccc3cccnc3c2)c1` [2-24, N-methyl-3-(quinolin-7-yl)-4-[4-(trifluoromethyl)phenoxy]benzene-1-sulfonamide], which EC50 (Homo sapiens, MCF7, 24 h) is on record?
**A.** Its EC50 is 273 nM.

**Q.** `CNS(=O)(=O)c1ccc(Oc2ccc(C(F)(F)F)cc2)c(-c2cnc3ncccn23)c1` [1-26, 3-(imidazo[1,2-a]pyrimidin-3-yl)-N-methyl-4-[4-(trifluoromethyl)phenoxy]benzene-1-sulfonamide] was tested. Which EC50 (Homo sapiens, MCF7, 24 h) did it give?
**A.** Its EC50 is 335 nM.

**Q.** With `CNS(=O)(=O)c1ccc(Oc2ccc(C(F)(F)F)cc2)c(-c2cccc3cc[nH]c23)c1` [2-7, 3-(1H-indol-7-yl)-N-methyl-4-[4-(trifluoromethyl)phenoxy]benzene-1-sulfonamide] as the compound, how does the EC50 (Homo sapiens, MCF7, 24 h) read?
**A.** The EC50 was 5620 nM.

**Q.** `CNS(=O)(=O)c1ccc(Oc2ccc(F)cc2)c(-c2cn3c(n2)CCC3)c1` [4-13, 3-(6,7-dihydro-5H-pyrrolo [1,2-a]imidazol-2-yl)-4-(4-fluorophenoxy)-N-methylbenzene-1-sulfonamide] was tested. Which EC50 (Homo sapiens, MCF7, 24 h) did it give?
**A.** The EC50 was 207 nM.

**Q.** Which EC50 (Homo sapiens, MCF7, 24 h) does the source give for `CNS(=O)(=O)c1ccc(Oc2ccc(Cl)c(C(F)(F)F)c2)c(-c2cn3c(n2)CCC3)c1` [4-16, 4-[4-chloro-3-(trifluoromethyl)phenoxy]-3-(6,7-dihydro-5H-pyrrolo[1,2-a]imidazol-2-yl)-N-methylbenzene-1-sulfonamide] here?
**A.** Its EC50 is 5.2 nM.
